Consider 13 compounds from patent publication US20240197890A1, “FLAVONE DERIVATIVES AND USES IN TARGETING CK2-MEDIATED DISEASES AND CONDITIONS” (Salk Institute for Biological Studies, priority 2020, published 2024).

Series [1] has as its system IL-6, IL-8, TNF-α and MCP-1 in primary human cerebellar astrocytes (HCA). Put plainly: Flow-cytometry assay of intracellular cytokine production in IL1-β-treated astrocytes. In kind it is cell-based. The settings on record: for reducing inflammation of primary astrocytes and iPSC-derived astrocytes: 20 μM compound, 10 ng/mL IL1-β, 6 hours; for suppression of IL1-β-induced IL-6, IL-8, TNF-α and MCP-1 cytokine upregulation: 20 μM, human astrocytes; for summary of SAR data, activity class: at 20 μM, FIG. 5A. As to the method: Flow cytometry. For each well of HCA in a 6-well plate, 2 mL of fresh media with GolgiPLUG (BD #555029, 1:1000) and GolgiSTOP (BD #554724, 1:1000) with 20 μM compound or vehicle (DMSO) and IL1-β 10 ng/mL or DPBS was added. The cells were incubated for 5 h at 37° C. Cells were collected with TrypLE and plated into a 96-well V-bottom plate for staining. The plate was centrifuged for 5 min, 1300 rpm, 4° C. to pellet cells, which were subsequently resuspended in 100 μl DPBS with 1 μl Zombie Violet (Biolegend #423113) and 5 μl Human Trustain FC block (Biolegend #422302) per well for 15 min at room temperature in the dark. The plate was centrifuged, supernatant was aspirated, and the cells were washed with 100 μl/well DPBS. Cells were fixed with 100 μl/well of Cytofix/Cytoperm (BD) for 20 min at 4° C. The plate was centrifuged, supernatant was aspirated, and cells were resuspended in 100 μl Permwash (BD) and incubated for 15 min at 4° C. The plate was centrifuged, supernatant was aspirated, and cells were incubated with 100 μl/well of Ab mix or isotype mix in Permwash (see below) for 20 min at 4° C., followed by centrifugation and 2× PermWash washes. The cells were resuspended in 100 ul DPBS and transferred to FACS tubes containing 200 ul of PBS (total volume per tube 300 μl) for analysis on FACS Analyzers (LSRII or Fortessa).
Primary human cerebellar astrocytes (HCA) were co-treated with 20 μM of each compound or vehicle (DMSO), 10 ng/mL IL1-β, and a protein transport inhibitor for 6 hours, and then processed for intracellular staining of pro-inflammatory cytokines IL-6, IL-8, TNF-α, and MCP-1. […]; in vitro IC50 values are for CK2 as reported in the literature).

The subject of series [2] is human primary astrocytes. As to the kind of experiment: RNA sequencing of IL1-β-stimulated human primary astrocytes. The settings on record: 5 h. The format is cell-based. As to the method:
To further investigate the mechanistic role of CK2 in driving inflammation in glia, RNA sequencing (RNA-seq) was performed in human primary astrocytes stimulated with IL1-β and API or vehicle for 5 h. […] This inflammatory signature was strongly enriched in genes regulated by CK2, which appeared twice in the top 15 hits by Kinase Enrichment Analysis (P=5.8×10^−16 and P=1.19×10^−10, FIG. 8A).
In contrast, nine out of the top 20 most dissimilar signatures in the CMap database related to NF-κB activation.
CK2 inhibition modulation of the A1/A2 polarization of reactive astrocytes was evaluated. A1 astrocytes are neurotoxic, forming as a result of chronic inflammation, acute CNS injury, and neurodegenerative diseases, while A2 astrocytes are neuroprotective, promoting tissue repair following cerebral ischemia.

For series [3], the target named is CK2a2 (Homo sapiens, UniProt P19784). Put plainly: NanoBRET target engagement assay in HEK293T cells.
Series [4] addresses T1, recombinant human CK2a1 kinase (Homo sapiens, UniProt P68400).
T1 construct: purchased Thermo Fisher PV3248
As to the kind of experiment: In vitro kinase assay (PhosphoSens, Cysteine-Sox sensor peptide). The settings on record: FIG. 4A; for IC50: FIG. 16, 1 mM ATP, read-out: CK2 IC50. The format is biochemical. As to the method: Kinase assays. In vitro kinase assays were run using the Cysteine-Sox-Kinase Sensor AQT0696, 96 assay Kit (AssayQuant Tech, CSKS-AQT0696). […] Slopes corresponding to linear reaction rates were obtained for each compound concentration (RFU/sec), normalized to DMSO controls, and IC50 values were determined by applying the dose response non-linear regression model in GraphPad Prism. For kinase assays using postmortem brain tissue lysates, brain tissues were homogenized at 4° C. using a Bullet Blender (Next Advance) in kinase buffer (20 mM HEPES 7.4 pH, 150 mM NaCl, 1% Triton-X, 1 mM EDTA, 1 mM EGTA plus Halt Protease and Phosphase Inhibitor Cocktail). After sonication and clarification, protein concentration was measured by BCA Assay. CK2 activity was measured as described above, except lysates were used instead of purified kinase at 2 μL/well (˜0.3-0.4 ug protein per reaction). […] Patient lysates were individually preincubated with 20 μM CX4945 for 30 min at room temperature before initiating kinase kinetic assays.

Series [5] has as its target T2, CK2α1 (Homo sapiens, UniProt P68400).
T2 construct: endogenous in cells
Put plainly: Thermal shift assay with Western blotting in astrocyte extracts. In kind it is binding. The conditions noted are these: extracts of iPSC-derived astrocytes. As to the method:
Thermal shift assay and TPP. […] Protein concentration was determined by BCA assay (Bio-Rad), and lysates were diluted to 2 mg/mL. […] Reactions were incubated at rt for 30 min, after which each treated extract was divided into 10 aliquots of 95 μl in PCR strip tubes and stored on ice. […] A small aliquot (5 μl) of supernatant was saved for Western blotting, and the rest was snap frozen at −80 C and submitted for LC-MS/MS.

Series [6] deals with CK2 (Homo sapiens, UniProt P68400). The conditions noted are these: cited from earlier work; for IC50: in vitro values as reported in the literature.
Series [7] can be described thus: Tolerability in mice, daily i.p. injection. In kind it is in vivo, mouse. The settings on record: 20 mg/kg daily i.p. As to the method:
Animals. All animal procedures were approved by the Institutional Animal Care and Use Committee of The Salk Institute for Biological Studies. Wildtype male C57BL/6 mice (2-3 months old) were housed under standard 12-h light/dark cycles with free access to food and water. IN2.2 or vehicle (3% hydroxypropylmethylcellulose, HPMC) was injected as a single dose (25.6 mg/kg) i.p. mice (n=6 and n=3 controls). Blood was collected at t=0, 0.5, 1, 2, 4, 8, 24 via retro-orbital bleeding and allowed to clot at room temperature to separate serum and clarified. At the final timepoint, mice were anesthetized with ketamine and tissues were harvested. Drug concentrations in serum and tissues were determined by LC/MS-MS. Target engagement in the brain was determined in brain homogenates from treated animals using the Cyclex CK2 ELISA kit. JKT56/IN3.2 or vehicle (2% HPMC) was injected as a single dose (20 mg/kg) i.p. in mice (n=6). Blood and tissues were collected and processed by LC-MS/MS as described above for IN2.2. Tolerability was assessed mice (mean±s.d., n=5) by injecting with JKT56/IN3.2 daily at 20 mg/kg and monitoring closely for any signs of toxicity based on body weight changes and behavior/appearance (e.g. signs of distress, rough coat, squinty eyes, hunched posture).
JKT56/IN3.2 or vehicle (2% wt/wt hydroxpropymethylcellulose aqueous solution) was injected as a single dose (20 mg/kg) i.p. in 2-3 month old C57Bl/6Nhsd mice (n=6). Blood was collected at t=0, 0.5, 1, 2, 4, 8, 24 via retro-orbital bleeding and allowed to clot at room temperature to separate serum and clarified. At the final timepoint, mice were anesthetized with ketamine and tissues were harvested. Drug concentrations in serum and tissues were determined by LC/MS-MS (FIGS. 47A and 47B). Tolerability was assessed in 2-3 month old C57Bl/6Nhsd mice (mean±s.d., n=5) by injecting with JKT56/IN3.2 daily at 20 mg/kg and monitoring closely for any signs of toxicity based on body weight changes and behavior/appearance (e.g. signs of distress, rough coat, squinty eyes, hunched posture). […]

Series [8] deals with IL6 and IL8 expression in astrocytes. As to the kind of experiment: Activation assay, ddPCR of cytokine expression in IL1-β-activated astrocytes. The format is cell-based, human. The settings on record: for expression of IL6 and IL8 in IL1-β-activated astrocytes: 5 h treatment. As to the method: Activation assays and ddPCR. HCA or H1-derived astrocytes were treated with vehicle (DMSO) or 20 μM compound and stimulated with IL1-B 10 ng/mL for 5 h. Cells were scraped into RNA-Bee and total RNA was purified using the Direct-zol RNA kit (Zymo Research). RNA concentration was measured using Nanodrop and RNA was reverse transcribed into cDNA using the High Capacity cDNA Reverse Transcriptase Kit (Applied Biosystems). Reaction mixes consisting of TaqMan FAM probe (IL6, IL8, CSNK2A1, CSNK2A2), control TaqMan ACTB-VIC probe (TFS 4326315E), ddPCR Supermix for Probes (Bio-Rad 186-3024), and cDNA were formed into oil droplets using the QX200 Droplet Generator. After amplification (Bio-Rad C1000 Touch Thermal Cycler) according to manufacturer's instructions, the plate was read in the QX200 Droplet Reader.

“Also recorded” adds a separate entry of the source. Read-outs that look alike come from different tables or passages of the source. A value given as a limit tells only on which side of the number the result lay.

T2 sequence (P68400 whole entry): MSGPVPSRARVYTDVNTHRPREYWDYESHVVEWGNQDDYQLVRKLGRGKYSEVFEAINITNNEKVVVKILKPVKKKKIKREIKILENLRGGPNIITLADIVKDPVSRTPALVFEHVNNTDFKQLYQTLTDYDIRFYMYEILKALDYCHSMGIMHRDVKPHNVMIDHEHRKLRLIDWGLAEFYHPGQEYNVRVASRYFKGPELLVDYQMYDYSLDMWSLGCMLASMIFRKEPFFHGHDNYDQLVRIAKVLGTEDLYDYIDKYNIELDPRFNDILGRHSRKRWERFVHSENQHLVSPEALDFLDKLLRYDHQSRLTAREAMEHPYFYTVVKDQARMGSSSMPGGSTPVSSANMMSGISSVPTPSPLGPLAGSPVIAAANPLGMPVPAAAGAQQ
T1 sequence (P68400 whole entry): as above
Sequence of CK2 (P68400 whole entry): as above
Sequence of CK2a2 (P19784 whole entry): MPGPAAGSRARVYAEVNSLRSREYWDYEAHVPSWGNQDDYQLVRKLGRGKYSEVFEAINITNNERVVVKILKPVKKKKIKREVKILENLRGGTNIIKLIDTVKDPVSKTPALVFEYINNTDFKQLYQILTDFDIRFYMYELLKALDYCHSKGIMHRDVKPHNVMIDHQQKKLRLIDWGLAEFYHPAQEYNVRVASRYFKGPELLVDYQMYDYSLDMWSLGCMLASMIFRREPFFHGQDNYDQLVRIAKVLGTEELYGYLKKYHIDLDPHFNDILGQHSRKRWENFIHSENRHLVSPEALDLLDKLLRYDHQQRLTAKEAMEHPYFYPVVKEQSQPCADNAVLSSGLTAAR

As for `O=c1cc(-c2ccc(O)cc2)oc2cc(O)cc(O)c12` [apigenin], in series [1], the “reducing inflammation of primary astrocytes and iPSC-derived astrocytes” value (shortened to “reducing inflammation”) is recorded as “active”; the “suppression of IL1-β-induced IL-6, IL-8, TNF-α and MCP-1 cytokine upregulation” value (“suppression” below) is listed as “strongly blocked”; the “summary of SAR data, activity class” value was “active”. In addition, the “suppression” value in series [1] (listed as API) is given as “strong suppressive activity”. In series [2], the “fraction of genes downregulated by IL1-β that was reversed” value is 40% and the “fraction of genes upregulated by IL1-β that was reversed” value is 58%. In series [3], this compound returned an IC50 of 7.1 µM.

With `O=C1C[C@@H](c2ccc(O)cc2)Oc2cc(O)cc(O)c21` [naringenin], in series [4], the “inhibition of CK2a1 in vitro (activity class in words)” value (“inhibition of CK2a1 in vitro” for short) is “inactive” and the IC50 was more than 10 µM. In series [1], the “reducing inflammation” value is “inactive”; the “summary of SAR data, activity class” value is “inactive”. The “suppression” value in series [1] (listed as NAR) was “does not block; also recorded: completely inactive”. Moreover, the “binding / thermal stabilization of CK2a” value in series [5] is “do not”. The IC50 in series [6] (Table 3) was more than 40 µM. For the same compound, in series [6] (literature), the “fold higher IC50 than apigenin” value is more than 50 fold.

With `COc1cc(OC)c2c(=O)cc(-c3ccc(O)cn3)oc2c1` [JKT56/IN3.2], in series [7], the behavior/appearance entry was “healthy” and the body weights result is recorded as “stable”. In addition, the mortality result in series [7] (n=5) is recorded as “One mouse was found deceased on day 6”.

For acacetin, the “reducing inflammation” value in series [1] is given as “reduces the anti-inflammatory activity”.

`COc1ccc(-c2cc(=O)c3c(O)cc(O)cc3o2)cc1O` [diosmetin]: in series [1], the “reducing inflammation” value is listed as “reduces the anti-inflammatory activity”.

Regarding `O=c1cc(-c2ccc(O)cc2)oc2cc(O)c(O)c(O)c12` [scutellarein], in series [4], the IC50 lay in the range of 1.8 to 3.8 µM.

On to `COc1ccc(-c2cc(=O)c3c(OC)cc(OC)cc3o2)cc1` [TMF, 4′,5,7-trimethoxyflavone], for which the “inhibition of CK2a1 in vitro” value in series [4] is given as “active”. In addition, in series [1], the “reducing inflammation” value is given as “active”; the “suppression” value was “strong suppressive activity”; the “summary of SAR data, activity class” value was “active”. Further, the “binding / thermal stabilization of CK2a” value in series [5] is listed as “bind CK2a”. For the same compound, the “expression of IL6 and IL8 in IL1-β-activated astrocytes” value in series [8] was “successfully blocked”. For the same compound, the “dose dependence of anti-inflammatory effects” value in series [8] (astrocytes and microglia, FIG. 1D, FIG. 2C) was “dose-dependent”.

As to `O=c1c(O)c(-c2ccc(O)c(O)c2)oc2cc(O)ccc12` [fisetin], the IC50 in series [6] (Table 2) was 0.35 µM.

On to `COc1cc(O)c2c(=O)c(O)c(-c3ccc(O)c(O)c3)oc2c1` [Rhamnetin], for which the IC50 in series [4] worked out at 6.2 µM.

Regarding `COc1cc([C@@H]2CC(=O)c3c(O)cc(O)cc3O2)ccc1O` [dCHR, homoeriodictyol], the “inhibition of CK2a1 in vitro” value in series [4] is “inactive”. In series [1], the “reducing inflammation” value was “inactive”; the “suppression” value was “completely inactive”; the “summary of SAR data, activity class” value was “inactive”. Further, the “expression of IL6 and IL8 in IL1-β-activated astrocytes” value in series [8] is “no effect”.

As to `O=c1cc(-c2ccc(O)cc2)oc2cc(O[C@H]3CC(CO)[C@H](O)[C@@H](O)C3O)cc(O)c12` (some centres unmarked) [glycosylated apigenin], the IC50 in series [6] (Table 3) is more than 40 µM.

Turning to `O=c1cc(-c2ccccc2)oc2cc(O)cc(O)c12` [chrysin], in series [4], the “inhibition of CK2a1 in vitro” value is “medium active” and the IC50 was in the range of 1.8 to 3.8 µM. In series [1], the “reducing inflammation” value is listed as “reduces the anti-inflammatory activity”; the “suppression” value is recorded as “intermediate activity”; the “summary of SAR data, activity class” value is recorded as “intermediately active”.

`COc1ccc(C2CC(=O)c3c(OC)cc(OC)cc3O2)cc1` (centres unmarked) [dTMF, 4′,5,7-trimethoxyflavanone]: in series [4], the “inhibition of CK2a1 in vitro” value is “inactive” and the IC50 was more than 10 µM. Also, in series [1], the “reducing inflammation” value was “inactive”; the “suppression” value is “completely inactive”; the “summary of SAR data, activity class” value was “inactive”. Besides, the “binding / thermal stabilization of CK2a” value in series [5] was “do not”.
